Measured values from patent US8703701B2 (Indiana University Research and Technology Corporation, priority 2009, dated 2014).
Starred links: 1 amine or outer side, 2 acyl side, 3 side chain; linkers in the order of their positions; H or OH if unused. Non-standard residues stand in square brackets, D forms with d. Residues, ends and D or L forms follow the SMILES beside them. Groups on a side chain read outwards from the residue. *: point of attachment. γGlu = O=C(O)[C@H](CCC(=O)[*:2])N[*:1]; Palmitoyl = CCCCCCCCCCCCCCCC(=O)*; Aib = CC(C)(N)C(=O)O

What was measured:
glucagon receptor = target: T1, glucagon receptor (Homo sapiens, UniProt P47871); test: cAMP induction, firefly luciferase reporter assay, glucagon receptor; format: cell-based; settings: for Activity at Glucagon Receptor % Relative Activity: compared to native glucagon
T1 construct: expressed in transfected cells; host or cells: HEK293
Procedure: (§1) The ability of each peptide to induce cAMP was measured in a firefly luciferase-based reporter assay.
(§2) At the end of the incubation, 100 μL of LucLite luminescence substrate reagent (Perkin Elmer, Wellesley, Mass.) were added to each well. The plate was shaken briefly, incubated 10 min in the dark and light output was measured on MicroBeta-1450 liquid scintillation counter (Perkin-Elmer, Wellesley, Mass.).

GLP-1 receptor = target: T2, GLP-1 receptor (Homo sapiens, UniProt P43220); test: cAMP induction, firefly luciferase reporter assay, GLP-1 receptor; format: cell-based; settings: for Activity at GLP-1 Receptor % Relative Activity: compared to native GLP-1
T2 construct: expressed in transfected cells; host or cells: HEK293
Procedure: as §1, §2

[1] = Activity at GLP-1 Receptor EC50 [pM], Table 3A

T2 sequence (P43220 24-463): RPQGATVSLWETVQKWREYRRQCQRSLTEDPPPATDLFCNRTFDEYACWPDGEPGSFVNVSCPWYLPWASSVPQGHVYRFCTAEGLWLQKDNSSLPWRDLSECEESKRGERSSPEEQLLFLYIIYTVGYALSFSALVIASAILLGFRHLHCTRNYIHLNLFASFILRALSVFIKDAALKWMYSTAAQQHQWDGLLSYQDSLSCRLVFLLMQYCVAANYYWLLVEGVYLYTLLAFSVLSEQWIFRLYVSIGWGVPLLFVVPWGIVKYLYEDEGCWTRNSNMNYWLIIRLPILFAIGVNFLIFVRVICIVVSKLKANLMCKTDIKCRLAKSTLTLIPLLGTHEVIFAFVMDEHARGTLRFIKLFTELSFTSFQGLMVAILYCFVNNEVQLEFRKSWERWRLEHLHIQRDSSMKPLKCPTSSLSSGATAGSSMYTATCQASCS
T1 sequence (P47871 26-477): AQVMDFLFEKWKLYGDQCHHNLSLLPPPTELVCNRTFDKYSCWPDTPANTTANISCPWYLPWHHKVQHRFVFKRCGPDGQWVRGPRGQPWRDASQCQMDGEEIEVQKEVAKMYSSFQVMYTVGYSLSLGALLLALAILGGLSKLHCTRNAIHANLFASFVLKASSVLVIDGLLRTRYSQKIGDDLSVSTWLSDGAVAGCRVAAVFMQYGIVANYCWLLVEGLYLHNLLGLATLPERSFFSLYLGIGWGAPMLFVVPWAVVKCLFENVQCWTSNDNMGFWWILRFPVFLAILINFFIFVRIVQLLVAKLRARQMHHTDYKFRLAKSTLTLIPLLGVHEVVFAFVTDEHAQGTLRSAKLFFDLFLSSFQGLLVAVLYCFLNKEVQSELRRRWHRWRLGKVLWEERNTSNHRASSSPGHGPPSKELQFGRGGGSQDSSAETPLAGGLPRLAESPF

| SMILES | Activity at Glucagon Receptor % Relative Activity (glucagon receptor; Table 3A) | Activity at GLP-1 Receptor % Relative Activity (GLP-1 receptor; Table 3A) | Activity at Glucagon Receptor % Relative Activity (glucagon receptor; Table 2B) | Activity at GLP-1 Receptor % Relative Activity (GLP-1 receptor; Table 2B) | also measured |
| --- | --- | --- | --- | --- | --- |
| CCCCCCCCCCCCCCCC(=O)N[C@@H](CCC(=O)NCCCC[C@H](NC(=O)[C@H](CC(=O)O)NC(=O)[C@H](CO)NC(=O)[C@@H](NC(=O)[C@H](Cc1ccccc1)NC(=O)[C@@H](NC(=O)CNC(=O)[C@H](CCC(N)=O)NC(=O)[C@@H](CO)NC(=O)[C@@H](N)Cc1c[nH]cn1)[C@@H](C)O)[C@@H](C)O)C(=O)N[C@@H](CO)C(=O)N[C@@H](CCCCN)C(=O)N[C@@H](Cc1ccc(O)cc1)C(=O)N[C@@H](CC(C)C)C(=O)N[C@@H](CC(=O)O)C(=O)N[C@@H](CCC(=O)O)C(=O)N[C@@H](CCCNC(=N)N)C(=O)N[C@@H](C)C(=O)N[C@@H](C)C(=O)N[C@@H](CCC(N)=O)C(=O)N[C@@H](CC(=O)O)C(=O)N[C@@H](Cc1ccccc1)C(=O)N[C@H](C(=O)N[C@@H](CCC(N)=O)C(=O)N[C@@H](Cc1c[nH]c2ccccc12)C(=O)N[C@@H](CC(C)C)C(=O)N[C@@H](CC(C)C)C(=O)N[C@@H](CC(=O)O)C(=O)N[C@H](C(N)=O)[C@@H](C)O)C(C)C)C(=O)O [compound 51] | 314% | 949% | – | – | EC50 (glucagon receptor; Activity at Glucagon Receptor EC50 [nM], Table 6): 0.004 nM; EC50 (glucagon receptor; Activity at Glucagon Receptor EC50 [pM], Table 3A): 0.0035 nM; Activity at Glucagon Receptor % Relative Activity (glucagon receptor; Table 6): 314%; EC50 (GLP-1 receptor; Activity at GLP-1 Receptor EC50 [nM], Table 6): 0.004 nM; EC50 (GLP-1 receptor; [1]): 0.0039 nM; Activity at GLP-1 Receptor % Relative Activity (GLP-1 receptor; Table 6): 949% |
| CCCCCCCCCCCCCCCC(=O)N[C@@H](CCC(=O)N[C@@H](CCC(=O)NCCCC[C@H](NC(=O)[C@H](CC(=O)O)NC(=O)[C@H](CO)NC(=O)[C@@H](NC(=O)[C@H](Cc1ccccc1)NC(=O)[C@@H](NC(=O)CNC(=O)[C@H](CCC(N)=O)NC(=O)[C@@H](CO)NC(=O)[C@@H](N)Cc1c[nH]cn1)[C@@H](C)O)[C@@H](C)O)C(=O)N[C@@H](CO)C(=O)N[C@@H](CCCCN)C(=O)N[C@@H](Cc1ccc(O)cc1)C(=O)N[C@@H](CC(C)C)C(=O)N[C@@H](CC(=O)O)C(=O)NC(C)(C)C(=O)N[C@@H](CCCCN)C(=O)N[C@@H](CCCNC(=N)N)C(=O)N[C@@H](C)C(=O)N[C@@H](CCCCN)C(=O)N[C@@H](CCC(=O)O)C(=O)N[C@@H](Cc1ccccc1)C(=O)N[C@H](C(=O)N[C@@H](CS)C(=O)N[C@@H](Cc1c[nH]c2ccccc12)C(=O)N[C@@H](CC(C)C)C(=O)N[C@@H](CC(C)C)C(=O)N[C@@H](CC(=O)O)C(=O)N[C@H](C(N)=O)[C@@H](C)O)C(C)C)C(=O)O)C(=O)O [compound 63] (H-H[dS]QGTFTSDK([γGlu-γGlu-Palmitoyl])SKYLD[Aib]KRAKEFVCWLLDT-NH2; N-terminus assumed) | – | – | 115% | 345% | EC50 (GLP-1 receptor; Activity at GLP-1 Receptor EC50 (nM), Table 2B): 0.02 nM |
| CCCCCCCCCCCCCCCC(=O)N[C@@H](CCC(=O)N[C@@H](CCC(=O)NCCCC[C@H](NC(=O)[C@H](CC(=O)O)NC(=O)[C@H](CO)NC(=O)[C@@H](NC(=O)[C@H](Cc1ccccc1)NC(=O)[C@@H](NC(=O)CNC(=O)[C@H](CCC(=O)O)NC(=O)C(C)(C)NC(=O)[C@@H](N)Cc1c[nH]cn1)[C@@H](C)O)[C@@H](C)O)C(=O)N[C@@H](CO)C(=O)N[C@@H](CCCCN)C(=O)N[C@@H](Cc1ccc(O)cc1)C(=O)N[C@@H](CC(C)C)C(=O)N[C@@H](CC(=O)O)C(=O)NC(C)(C)C(=O)N[C@@H](CCCNC(=N)N)C(=O)N[C@@H](C)C(=O)N[C@@H](C)C(=O)N[C@@H](CCC(N)=O)C(=O)N[C@@H](CC(=O)O)C(=O)N[C@@H](Cc1ccccc1)C(=O)N[C@H](C(=O)N[C@@H](CCC(N)=O)C(=O)N[C@@H](Cc1c[nH]c2ccccc12)C(=O)N[C@@H](CC(C)C)C(=O)N[C@@H](CCSC)C(=O)N[C@@H](CC(=O)O)C(=O)N[C@H](C(N)=O)[C@@H](C)O)C(C)C)C(=O)O)C(=O)O [compound 45] (H-H[Aib]EGTFTSDK([γGlu-γGlu-Palmitoyl])SKYLD[Aib]RAAQDFVQWLMDT-NH2; N-terminus assumed) | 75% | 759% | – | – | EC50 (GLP-1 receptor; [1]): 0.003 nM |
| CCCCCCCCCCCCCCCC(=O)N[C@@H](CCC(=O)NCCCC[C@H](NC(=O)[C@H](CC(=O)O)NC(=O)[C@H](CO)NC(=O)[C@@H](NC(=O)[C@H](Cc1ccccc1)NC(=O)[C@@H](NC(=O)CNC(=O)[C@H](CCC(N)=O)NC(=O)[C@@H](CO)NC(=O)[C@@H](N)Cc1c[nH]cn1)[C@@H](C)O)[C@@H](C)O)C(=O)N[C@@H](CO)C(=O)N[C@@H](CCCCN)C(=O)N[C@@H](Cc1ccc(O)cc1)C(=O)N[C@@H](CC(C)C)C(=O)N[C@@H](CC(=O)O)C(=O)NC(C)(C)C(=O)N[C@@H](CCCCN)C(=O)N[C@@H](CCCNC(=N)N)C(=O)N[C@@H](C)C(=O)N[C@@H](CCCCN)C(=O)N[C@@H](CCC(=O)O)C(=O)N[C@@H](Cc1ccccc1)C(=O)N[C@H](C(=O)N[C@@H](CS)C(=O)N[C@@H](Cc1c[nH]c2ccccc12)C(=O)N[C@@H](CC(C)C)C(=O)N[C@@H](CC(C)C)C(=O)N[C@@H](CC(=O)O)C(=O)N[C@H](C(N)=O)[C@@H](C)O)C(C)C)C(=O)O [compound 62] (H-H[dS]QGTFTSDK([γGlu-Palmitoyl])SKYLD[Aib]KRAKEFVCWLLDT-NH2; N-terminus assumed) | – | – | 113% | 246% | – |
| CCCCCCCCCCCCCCCC(=O)N[C@@H](CCC(=O)NCCCC[C@H](NC(=O)[C@H](CC(=O)O)NC(=O)[C@H](CO)NC(=O)[C@@H](NC(=O)[C@H](Cc1ccccc1)NC(=O)[C@@H](NC(=O)CNC(=O)[C@H](CCC(N)=O)NC(=O)[C@@H](CO)NC(=O)[C@@H](N)Cc1c[nH]cn1)[C@@H](C)O)[C@@H](C)O)C(=O)N[C@@H](CO)C(=O)N[C@@H](CCCCN)C(=O)N[C@@H](Cc1ccc(O)cc1)C(=O)N[C@@H](CC(C)C)C(=O)N[C@@H](CC(=O)O)C(=O)N[C@@H](CCC(=O)O)C(=O)N[C@@H](CCC(N)=O)C(=O)N[C@@H](C)C(=O)N[C@@H](C)C(=O)N[C@@H](CCCCN)C(=O)N[C@@H](CCC(=O)O)C(=O)N[C@@H](Cc1ccccc1)C(=O)N[C@H](C(=O)N[C@@H](CS)C(=O)N[C@@H](Cc1c[nH]c2ccccc12)C(=O)N[C@@H](CC(C)C)C(=O)N[C@@H](CC(C)C)C(=O)N[C@@H](CC(=O)O)C(=O)N[C@@H](CCC(=O)O)C(N)=O)[C@@H](C)CC)C(=O)O [compound 82] (H-H[dS]QGTFTSDK([γGlu-Palmitoyl])SKYLDEQAAKEFICWLLDE-NH2; N-terminus assumed) | – | – | – | – | Activity at Glucagon Receptor % Relative Activity (glucagon receptor; Table 3C): 121%; EC50 (GLP-1 receptor; Activity at GLP-1 Receptor EC50 [nM], Table 3C): 0.02 nM; Activity at GLP-1 Receptor % Relative Activity (GLP-1 receptor; Table 3C): 345% |
| CC(C)C[C@H](NC(=O)[C@H](CC(C)C)NC(=O)[C@H](Cc1c[nH]c2ccccc12)NC(=O)[C@H](CS)NC(=O)[C@@H](NC(=O)[C@H](Cc1ccccc1)NC(=O)[C@H](CCC(=O)O)NC(=O)[C@H](CCCCN)NC(=O)[C@H](C)NC(=O)[C@H](CCCNC(=N)N)NC(=O)[C@H](CCCCN)NC(=O)[C@H](CCC(=O)O)NC(=O)[C@H](CC(=O)O)NC(=O)[C@H](CC(C)C)NC(=O)[C@H](Cc1ccc(O)cc1)NC(=O)[C@H](CCCCN)NC(=O)[C@H](CO)NC(=O)[C@H](Cc1ccc(O)cc1)NC(=O)[C@H](CC(=O)O)NC(=O)[C@H](CO)NC(=O)[C@@H](NC(=O)[C@H](Cc1ccccc1)NC(=O)[C@@H](NC(=O)CNC(=O)[C@H](CCC(N)=O)NC(=O)[C@@H](CO)NC(=O)[C@@H](N)Cc1c[nH]cn1)[C@@H](C)O)[C@@H](C)O)C(C)C)C(=O)N[C@@H](CC(=O)O)C(=O)NCC(=O)NCC(=O)N1CCC[C@H]1C(=O)N[C@@H](CO)C(=O)N[C@@H](CO)C(=O)NCC(=O)N[C@@H](C)C(=O)N1CCC[C@H]1C(=O)N1CCC[C@H]1C(=O)N1CCC[C@H]1C(=O)N[C@@H](CO)C(N)=O [compound 61] (H-H[dS]QGTFTSDYSKYLDEKRAKEFVCWLLDGGPSSGAPPPS-NH2; N-terminus assumed) | – | – | 88% | 39% | – |
| CCCCCCCCCCCCCCCC(=O)N[C@@H](CCC(=O)NCCCC[C@H](NC(=O)[C@H](CC(=O)O)NC(=O)[C@H](CO)NC(=O)[C@@H](NC(=O)[C@H](Cc1ccccc1)NC(=O)[C@@H](NC(=O)CNC(=O)[C@H](CCC(N)=O)NC(=O)C(C)(C)NC(=O)[C@@H](N)Cc1c[nH]cn1)[C@@H](C)O)[C@@H](C)O)C(=O)N[C@@H](CO)C(=O)N[C@@H](CCCCN)C(=O)N[C@@H](Cc1ccc(O)cc1)C(=O)N[C@@H](CC(C)C)C(=O)N[C@@H](CC(=O)O)C(=O)NC(C)(C)C(=O)N[C@@H](CCCNC(=N)N)C(=O)N[C@@H](C)C(=O)N[C@@H](C)C(=O)N[C@@H](CCC(N)=O)C(=O)N[C@@H](CC(=O)O)C(=O)N[C@@H](Cc1ccccc1)C(=O)N[C@H](C(=O)N[C@@H](CCC(N)=O)C(=O)N[C@@H](Cc1c[nH]c2ccccc12)C(=O)N[C@@H](CC(C)C)C(=O)N[C@@H](CCSC)C(=O)N[C@@H](CC(=O)O)C(=O)N[C@H](C(N)=O)[C@@H](C)O)C(C)C)C(=O)O [compound 43] (H-H[Aib]QGTFTSDK([γGlu-Palmitoyl])SKYLD[Aib]RAAQDFVQWLMDT-NH2; N-terminus assumed) | 467% | 575% | – | – | – |
